{
  "source": "paper PMC12627933",
  "about": "“A First-In-Human Study of the SUMOylation Inhibitor Subasumstat in Patients with Advanced/Metastatic Solid Tumors or Relapsed/Refractory Hematologic Malignancies” (Cancer Research Communications, 2025)",
  "key": {"[1]": {"test_system": "advanced/metastatic solid tumors and relapsed/refractory hematologic malignancies", "assay": "Clinical activity (RECIST v1.1 / Lugano criteria)", "format": "in vivo, human", "conditions": "for DCR: 95% CI; for Patients with best response of SD: 90 mg twice weekly", "protocol": "Disease response and progression were assessed for up to 48 months using CT and/or MRI scans with intravenous contrast and ^18fluorodeoxyglucose-PET imaging according to RECIST v1.1 criteria for solid tumors or Lugano criteria for lymphoma response ([21]).\nIt was anticipated that approximately 70 DLT-evaluable patients would be enrolled for dose escalation. The safety analysis set included all patients who received at least one dose, even if incomplete, of subasumstat. The tumor response–evaluable set included patients who received at least one dose of subasumstat, had sites of measurable disease at baseline and one post-baseline disease assessment, or discontinued treatment because of symptomatic deterioration or death prior to post-baseline evaluation. The overall response rate (ORR) was defined as the proportion of patients who achieved complete response and partial response (PR) during the study. The disease control rate (DCR) was defined as the proportion of patients who achieved […] as per RECIST v1.1 for solid tumors or Lugano classification for lymphomas. Both ORR and DCR were estimated with two-sided 95% exact binomial confidence intervals (CI). Progression-free survival was summarized descriptively using the Kaplan–Meier method."}, "[2]": {"test_system": "tumor microenvironment (TME)", "design": "method as in PMID 37389981", "conditions": "intratumor microdosing; cited from earlier work"}, "[3]": {"test_system": "IFNI pathway", "assay": "IFNI pathway activation: IFNI gene signature in peripheral blood and plasma CXCL-10 (IP-10)", "format": "in vivo, human", "protocol": "Blood samples for subasumstat–SUMO adduct formation and SUMO2/3 inhibition assessments were collected before dose and at 1, 4, and 8 hours after the infusion on C1D1 and C1D8. Blood samples for additional biomarker analyses were collected before dose on C1D1 and C1D8 and at 4, 8, and 24 hours after infusion on C1D1 and C1D8. Skin biopsies (used as surrogate tissue for solid tumors) were collected at screening and on C1D8 at 2 hours (±30 minutes) after end of infusion, and tumor biopsies were collected at screening and cycle 2 day 8 (C2D8; +7 days; whenever possible). In blood samples, a custom flow cytometry assay was utilized for detecting target engagement and SUMOylated protein levels in lymphocytes (including T-, B-, and NK-cell subsets). The assay included a PE-conjugated antibody specifically recognizing the SUMO–subasumstat adduct (MIL-113, anti–cysteinyl-TAK-981, Epitomics; refs. [14], [15], [22]) and an AF488-conjugated antibody recognizing SUMO2/3 conjugates (MBL International, cat. #M114-3, RRID: AB_592769). Peripheral blood cells were lysed/fixed, permeabilized (BD Biosciences), and stained with MIL-113 and M114-3 and with antibodies against CD45, CD3, CD19, CD16/CD56, and CD14. […] Activation of the IFNI pathway was assessed in peripheral blood by analysis of gene expression data (PanCancer IO 360 panel by NanoString for phase I and whole-transcriptome RNA sequencing data for phase II). […] These seven IFNI-regulated genes were selected prior to the trial, based on in vitro studies of the effect of subasumstat on human blood from 10 healthy donors analyzed on the NanoString PanCancer IO 360 panel. Plasma chemokines and cytokines were measured using the MesoScale Discovery platform (pro-inflammatory and chemokine panels, BioAgilytix). […] Tumor PD-L1 expression level was assessed in paired tumor biopsies using the 22C3 PD-L1 IHC assay; combined positive score (CPS) was calculated for baseline and on-treatment tumor samples. The immune landscape in the tumor microenvironment (TME) was assessed using an integrated RNAscope and 27-marker MultiOmyx immunofluorescence panel."}, "[4]": {"conditions": "phase II NSCLC expansion cohort"}, "[5]": {"conditions": "phase II cervical cancer expansion cohort"}},
  "data": [
    {"smiles": "Cc1sc(C(=O)c2cncnc2N[C@@H]2C[C@H](COS(N)(=O)=O)[C@@H](O)C2)cc1[C@@H]1NCCc2ccc(Cl)cc21", "note": "[subasumstat]", "values": [
      {"measurement": "Patients with confirmed PR", "setting": "[1]; 99 response-evaluable patients, both phases, 40, 90 and 120 mg twice weekly", "value": "three"},
      {"measurement": "Patients with confirmed PR", "setting": "[1]; overall", "value": 3, "unit": "%"},
      {"measurement": "Best response of SD", "setting": "[1]; overall, 26 patients", "value": 26.3, "unit": "%"},
      {"measurement": "DCR", "setting": "[1]; overall, n = 29/99, 20.57–39.29", "value": 29.3, "unit": "%"},
      {"measurement": "DCR", "setting": "[1]; phase I, n = 21/75, 18.24–39.56", "value": 28, "unit": "%"},
      {"measurement": "Median progression-free survival", "setting": "[1]; [4]", "value": 6.06, "unit": "months"},
      {"measurement": "Patients with best response of SD", "setting": "[1]; [4]", "value": "four of seven"},
      {"measurement": "Median progression-free survival", "setting": "[1]; [5]", "value": 3.78, "unit": "months"},
      {"measurement": "Patients with best response of SD", "setting": "[1]; [5]", "value": "two of three"},
      {"measurement": "DCR", "setting": "[1]; phase II, n = 8/24, 15.63–55.32", "value": 33, "unit": "%"},
      {"measurement": "Modulation of the TME", "setting": "[2]", "value": "modulate the TME from an immune-suppressive to an immune-permissive status"},
      {"measurement": "Dose from which IFNI gene signature and plasma CXCL-10 (IP-10) were upregulated", "setting": "[3]; both dosing schedules, phase I, dose-dependent", "value": "≥ 40", "unit": "mg"},
      {"measurement": "Recovery of IFNI gene signature and IP-10", "setting": "[3]; both markers", "value": "returned to baseline levels before dose on C1D8"},
      {"measurement": "Time to increase of IP-10 plasma concentration after end of infusion", "setting": "[3]; plasma", "value": "≤ 24", "unit": "h"}
    ]}
  ]
}
